{
  "source": "patent US20090098050A1",
  "about": "“CALCIUM BINDING PEPTIDES” (THE REGENTS OF THE UNVERSITY OF CALIFORNIA, priority 2005, published 2009)",
  "key": {"[1]": {"assay": "Accumulation of calcium phosphate by immobilized peptide on streptavidin beads", "settings": "biotin-conjugated peptide on beads, PBS+1 mM CaCl2+1 mM NaHPO4, twelve days", "protocol": "FIG. 3: Interaction of immobilized 8DSS peptide with CaHPO4. Streptavidin-coated polystyrene beads were incubated with biotin-conjugated 8DSS (A and C) or unconjugated biotin (B) and (D). Beads were washed and incubated in a solution of PBS+1 mM CaCl2+1 mM NaHPO4 for twelve days prior to imaging. A. Brightfield micrographs of aggregates of amorphous calcium phosphate that accumulated around DSS-coated beads. All calcium phosphate aggregates of significant size were associated with one or more beads. B. Brightfield image of representative biotin-blocked beads (no DSS peptide). No significant amount of precipitate was associated with these beads. C. Phase-contrast micrograph of a DSS-coated bead with a more ordered accretion of calcium phosphate around its exterior (note the spherical center of the object). These objects were not seen in control samples (biotin-blocked, no DSS peptide), as illustrated in (D). Scale Bars=4 μm. Streptavidin-coated polystyrene beads with an average diameter of 4 μm (Spherotech P.L.C.) were incubated with either biotin-conjugated 8DSS peptide or unconjugated biotin. Beads were washed with PBS to remove unbound peptide (or unbound biotin, in the case of the control beads) and incubated in a solution of PBS+1 mM CaCl2+1 mM NaHPO4 for twelve days prior to imaging. […] All calcium phosphate aggregates of significant size were associated with one or more beads. […]"}, "[2]": {"assay": "Preferential binding to carious lesions in teeth (CLSM)", "parameters": "species or system human", "settings": "labeled peptide, settings optimized per sample", "protocol": "FIG. 9: Fluorescence micrographs showing specific binding of DSS peptides and variants to carious lesions in teeth. Adult human teeth were exposed to 12.5 uM 5(6)-carboxyfluorescein-labeled peptide without demineralization, washed extensively, and imaged by CLSM. Microscope and camera settings were optimized separately for each sample. […] White traces on the right side of each panel identify the position of the tooth surface, while arrows indicate the position of the stained lesion.\nSections of human teeth containing obvious carious lesions, which consist of demineralized enamel, were polished and exposed to 5(6)-carboxyfluorescein-labeled DSS peptides and variants using the protocol described in Example 2. The sections were washed extensively and imaged by CLSM using blue laser illumination (λ=488 nm) and a FITC emission filter, with microscope and camera settings adjusted for each sample to optimize the signal detected from each peptide. The images were examined to identify the relative levels of peptide binding in healthy versus carious tissue. […] Given their ability to remineralize at sites of enamel degradation (Example 6), they can also be used to initiate remineralization at sites of enamel degradation such as caries or injury sites without causing inappropriate nucleation on healthy tissue surfaces."}, "[3]": {"assay": "Remineralization of demineralized rat femur (SEM)", "settings": "peptide one hour, then Quell Desensitizer", "protocol": "FIG. 7: Mineralization of bone. Rat femurs were obtained from sacrificed animals under a shared tissue protocol. Samples were demineralized, rinsed, and ultrasonicated to remove debris. Test samples were treated with 8DSS peptide for one hour, rinsed, remineralized using Quell Desensitizer as described in Example 8, then imaged by Scanning Electron Microscopy. SEM images are shown. Top: untreated sample, showing the surface of the bone completely covered by mineral. Center: demineralized sample, showing Haversian canals exposed by removal of the mineral layer. Bottom: Bone treated with 8DSS and Quell Desensitizer (an aqueous CaCl2/K2HPO4 solution), showing reestablishment of the mineral layer.\nIn order to determine whether the remineralization results observed for tooth tissues can be extended to bone, rat femurs were obtained from sacrificed animals under a shared tissue protocol. Test samples were demineralized with 19% EDTA gel for one hour, followed by immersion in deionized water and ultrasonication to remove excess debris. Test samples were then treated with 8DSS peptide for one hour, rinsed, and half of the samples were remineralized using Quell Desensitizer (Pentron Clinical Technologies, LLC) as described in Example 5. All samples were then prepared for SEM and imaged as in Example 5. […] In the demineralized sample, the Haversian canals were clearly exposed (FIG. 7, middle panel). […]"}, "[4]": {"assay": "Tissue specific binding of DSS peptides and variants in human teeth (CLSM)", "settings": "12.5 μM labeled peptide", "protocol": "FIG. 8: Fluorescence micrographs showing tissue specificity in the binding of DSS peptides and variants. Adult human teeth were exposed to 12.5 μM 5(6)-carboxyfluorescein-labeled peptide without demineralization, washed extensively, and imaged by CLSM. For each section, multiple scans were collected and assembled in an automated mode to generate panels of images representing an area of 13×13 mm, sufficient in most cases to encompass the whole section. The peptides used for each section are labeled beneath each panel, and within each panel the tooth is oriented with the root toward the top of the image and the crown toward the bottom. Tissue layers are labeled as follows: RTD=Root Tip Dentin; CPD=Circumpulpal Dentin; MD=Mantle Dentin; P=Pulp Cavity Wall; DEJ=Dentin-Enamel Junction; E=Enamel; BE=Basal Enamel; CE=Cortical Enamel; CL=Carious Lesion; PB=Periodontal Bone.\nIn order to investigate the tissue specificity of DSS peptide binding to tooth tissue, sections of human teeth were exposed to DSS peptides and variants, then imaged by CLSM as described in Example 2. The peptides utilized for these experiments were 8DSS, 8ASS, 8DAA, 8NAA, 4DSS, 4ESS, 4NSS, 4DTT, 4ETT, 4NTT, and 6DSS. Sagittal sections of human teeth extracted during normal clinical practice were polished and then incubated for ten minutes in a solution of the appropriate 5(6) carboxyfluorescein-labeled peptide (12.5 μM) containing 10 mM NaCl and 50 mM HEPES, pH 7.0. Control samples were prepared without peptide. Samples were washed extensively after treatment and imaged by CLSM using blue laser illumination (λ=488 nm) and a FITC emission filter, with identical camera and microscope settings for each sample. For each section, multiple scans were collected and assembled in an automated mode to generate panels of images representing an area of 13×13 mm, sufficient in most cases to encompass the whole section. […] Significant binding was also seen to the edges of the pulp cavity."}},
  "data": [
    {"substance": "8DSS: peptide containing eight Asp-Ser-Ser (DSS) repeats, SEQ ID NO:15 (DSSDSSDSSDSSDSSDSSDSSDSS; calcium binding peptide containing eight DSS repeats, 8DSS)", "values": [
      {"measurement": "Calcium phosphate accumulation around peptide-coated beads", "setting": "[1]", "value": "incorporated into large aggregates of precipitated amorphous calcium phosphate"},
      {"measurement": "Specificity of binding to carious lesions versus surrounding healthy enamel", "setting": "[2]", "value": "highly specific binding to carious lesions"},
      {"measurement": "Strength of staining of carious lesions", "setting": "[2]", "value": "exceptionally strong staining of carious lesions"},
      {"measurement": "Remineralization of demineralized bone surface", "setting": "[3]", "value": "the mineral surface was restored and occlusion of the canals was observed"},
      {"measurement": "Tissue binding pattern in healthy tooth section", "setting": "[4]; nondemineralized teeth", "value": "bound primarily to the mantle dentin"},
      {"measurement": "Level of binding (staining) to tooth surfaces", "setting": "[4]; ten minutes, identical settings", "value": "greatest levels of staining"}
    ]}
  ]
}
